Measured values: paper PMC6152192, “Novel Methylselenoesters as Antiproliferative Agents” (Molecules : A Journal of Synthetic Chemistry and Natural …, 2017)

Legend:
[1] = test system: glutathione-glutaredoxin (GSH-Grx) system; experiment: Glutaredoxin/glutathione assay (NADPH consumption); format: biochemical; conditions: 1 mM GSH, 200 μM NADPH, yeast GR, 1 μM hGrx1 when required, 45 min
Experimental: The assay was performed as previously described, with minor modifications and adapted for a 96-well plate. A mixture of 0.1 M Tris pH 8, 2 mM EDTA pH = 8, 0.1 mg/mL BSA, 1 mM GSH, 200 μM NADPH, and 0.008 OD/mL yeast GR was prepared (all reagents were purchased from Sigma-Aldrich). Reactions were performed with 1 μM hGrx1 (IMCO Corporation, Stockholm, Sweden) when corresponding and different concentrations of the compounds. A 100 μL mixture was added, and the final volume was adjusted to 110 μL per well. Consumption of NADPH was monitored at A340 on a VersaMax microplate reader (Molecular Devices) for 45 min.
Figure 7 Compounds 5 and 15 are substrates for thioredoxin reductase but not for the glutathione-glutaredoxin system. (A) NADPH consumption indicating reduction of compounds 5, 15 or MSA as control by thioredoxin reductase. The reaction mixture contained 100 nM TrxR1, 227 μM NADPH and the corresponding amount of compound in TE buffer (20 mM Tris, 2 mM EDTA pH = 8); (B) NADPH consumption indicating reduction of MSA by glutathione in the presence or absence of glutaredoxin. The reaction mixture contained the corresponding amount of compound, 0.1 M Tris, 2 mM EDTA pH = 8, 0.1 mg/mL BSA, 1 mM GSH, 200 μM NADPH, 0.008 OD/mL yeast GR and 1 μM hGrx1 when required. Only results for MSA are shown, as compounds 5 and 15 were not reduced.

[2] = test system: BEAS-2B (non-malignant bronchial epithelial); experiment: MTT viability assay, BEAS-2B; format: cell-based; conditions: BEAS-2B non-malignant, 72 h, MTT; for CC50: read-out: LC50 (the source's name)
Experimental: The novel compounds were tested against a panel of different cancer lines: PC-3 (prostate adenocarcinoma), MCF7 (mammary adenocarcinoma), HTB-54 (lung carcinoma), K-562 (chronic myelogenous leukemia) and HT-29 (colorectal adenocarcinoma). Two non-malignant cell lines, BEAS-2B (bronchial epithelial) and 184B5 (mammary epithelial) were also included to evaluate the toxicity of the novel synthesized compounds. The antiproliferative activity was measured with the [3-(4,5-dimethylthiazol-2-yl)-2,5-diphenyltetrazolium bromide] (MTT) assay after 72 h treatment. Six concentrations ranging from 0.1 to 100 μM were tested. MSA is largely known as the main CH3SeH putative precursor and was therefore included as positive control. The following parameters were calculated: GI50 (concentration which reduces the growth by 50%), TGI (concentration completely inhibiting growth) and LC50 (concentration that kills 50% of the cells).
All cells were purchased from the American Type Culture Collection (ATCC, Barcelona, Spain). HT-29 (colorectal adenocarcinoma), HTB-54 (grade III lung carcinoma), MCF7 (mammary adenocarcinoma), PC-3 (grade IV prostate adenocarcinoma) and K-562 (chronic myelogenous leukemia) were cultured in RPMI (Gibco, Madrid, Spain), 10% FBS (Gibco), 100 units/mL penicillin and 100 μg/mL streptomycin (Gibco). BEAS-2B cell line (normal epithelial lung) was cultured in DMEM (Gibco), 10% FBS, 100 units/mL penicillin and 100 μg/mL streptomycin. 184B5 (normal mammary gland) cell line was cultured in DMEM:F12 supplemented with 5% FBS, 1 × ITS (Lonza, Barcelona, Spain), 100 nM hydrocortisone (Sigma-Aldrich), 2 mM sodium pyruvate (Lonza), 20 ng/mL EGF (Sigma-Aldrich), 0.3 nM trans-retinoic acid (Sigma-Aldrich), 100 units/mL penicillin and 100 µg/mL streptomycin. Cells were cultured at 37 °C under 5% CO2.
Cell viability after treatment was assessed by the well-known 3-(4,5-dimethyl-thiazol-2-yl)-2,5-diphenyltetrazolium bromide (MTT, Sigma-Aldrich) assay. Briefly, 10,000 cells were seeded in 96-well plates, treated and incubated for 72 h. Dilutions of the compounds in cell medium were freshly prepared from a 0.01 M stock in DMSO. After treatment, 50 μL of MTT solution in PBS (2 mg/mL) were added and cells were incubated for 4 h. Medium was removed and 150 μL of DMSO was added to dissolve the formed formazan crystals. Absorbance was read at 550 nm in a microplate absorbance reader (Sunrise, Tecan, Männedorf, Switzerland).

| Substance | reduction by GSH in the presence or absence of glutaredoxin (NADPH consumption) [1] | GI50 [2] | TGI [2] | CC50 [2] |
| --- | --- | --- | --- | --- |
| Dimethyl 2,5-furandicarboselenoate [Compound 15] | not reduced | 2.6 ± 0.8 µM | 5.6 ± 0.9 µM | 8.6 ± 1.2 µM |
| Methyl 3-chlorothiophen-2-carboselenoate [Compound 5] | not reduced | 2.7 ± 0.5 µM | 5.3 ± 0.7 µM | 8 ± 1 µM |
